Here are results for 23 molecules from patent publication US8124610B2, “Sodium channel inhibitors” (Icagen Inc., priority 2007, dated 2012).

The structures appear in SMILES notation. Like-named read-outs stand apart in the source and are kept apart here.

In one assay the target is T1, hSCN9A (Homo sapiens, UniProt Q15858).
T1 construct: expressed in transfected cells
Description: Whole-cell patch-clamp electrophysiology (conventional or PatchXpress), HEK cells expressing hSCN9A, estimated IC-50. It counts as cell-based. The settings on record: read-out: SCN9A EIC-50. The method in brief: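 Stably transfected HEK cells recorded by whole-cell voltage clamp (manual or PatchXpress) at 22–24 °C in pH 7.4 HEPES-buffered extracellular solution. Cells held at the empirically determined inactivation V1/2 after an 8 s prepulse, then stepped to 0 mV for 20 ms; % inhibition from current amplitude before vs after compound.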

The next assay deals with T2, hSCN3A (Homo sapiens, UniProt Q9NY46).
T2 construct: expressed in transfected cells
Description: Whole-cell patch-clamp electrophysiology (conventional or PatchXpress), HEK cells expressing hSCN3A, estimated IC-50. It counts as cell-based. The conditions noted are these: read-out: SCN3A EIC-50. The protocol:
Human Embryonic Kidney (HEK) cells were transfected with hSCN3A or hSCN9A constructs using lipofectamine reagent (Invitrogen), using standard techniques. Cells stably expressing the hSCN3A or hSCN9A constructs were identified by their resistance to G-418 (400 μg/ml). Clones were screened for expression using the whole-cell voltage-clamp technique. HEK cells stably transfected with hSCN3A or hSCN9A were maintained in DMEM medium supplemented with 10% heat-inactivated fetal bovine serum and 400 μg/ml G418 sulfate in an incubator at 37° C. with a humidified atmosphere of 10% CO2. For HTS, cells were harvested from flasks by trypsinization and replated in an appropriate multi-well plate (typically 96 or 384 wells/plate) such that confluence would be achieved within 24 hours of plating. For electrophysiological studies, cells were removed from the culture flask by brief trypsinization and replated at low density onto glass cover slips. Cells were typically used for electrophysiological experiments within 24 to 72 h after plating. Cover slips containing HEK cells expressing hSCN3A or hSCN9A were placed in a bath on the stage of an inverted microscope and perfused (approximately 1 ml/min) with extracellular solution of the following composition: 138 mM NaCl, 2 mM CaCl2, 5.4 mM KCl, 1 mM MgCl2, 10 mM glucose, and 10 mM HEPES, pH 7.4, with NaOH. […] All recordings were made at room temperature (22-24° C.) using AXOPATCH 200B amplifiers and PCLAMP software (Axon Instruments, Burlingame, Calif.) or PatchXpress 7000 hardware and associated software (Axon Instruments, Burlingame, Calif.). hSCN3A or hSCN9A currents in HEK cells were measured using the whole-cell configuration of the patch-clamp technique (Hamill et al., 1981). […] As a result, voltage errors were negligible and no correction was applied. Current records were acquired at 20 to 50 KHz and filtered at 5 to 10 KHz. HEK cells stably transfected with hSCN3A or hSCN9A were viewed under Hoffman contrast optics and placed in front of an array of flow pipes emitting either control or compound-containing extracellular solutions. All compounds were dissolved in dimethyl sulfoxide to make 10 mM stock solutions, which were then diluted into extracellular solution to attain the final concentrations desired. […] The voltage-dependence of inactivation was determined by applying a series of depolarizing prepulses (8 sec long in 10 mV increments) from a negative holding potential. The voltage was then immediately stepped to 0 mV to assess the magnitude of the sodium current. Currents elicited at 0 mV were plotted as a function of prepulse potential to allow estimation of the voltage midpoint of inactivation (V1/2). Cells were then voltage clamped at the empirically determined V1/2. Compounds were tested for their ability to inhibit hSCN3A or hSCN9A sodium channels by activating the channel with a 20 msec voltage step to 0 mV following an 8 second conditioning prepulse to the empirically determined V1-2 (Table B). Compound effect (% inhibition) was determined by difference in current amplitude before and after application of test compounds. […] In some cases electrophysiological assays were conducted with PatchXpress 7000 hardware and associated software (Molecular Devices Corp) (Table B). All assay buffers and solutions were identical to those used in conventional whole-cell voltage clamp experiments described above. hSCN3A or hSCN9A containing cells were grown as above to 50%-80% confluency and harvested by trypsinization. Trypsinized cells were washed and resuspended in extracellular buffer at a concentration of 1×10^6 cells/ml. The onboard liquid handling facility of the PatchXpress was used for dispensing cells and application of test compounds. Determination of the voltage midpoint of inactivation was as described for conventional whole-cell recordings. Cells were then voltage-clamped to the empirically determined V1/2 and current was activated by a 20 msec voltage step to 0 mV.

The mark [1] stands for this setting: commercial compounds (second Table VI), estimated IC-50 from single point electrophysiology.
The mark [2] stands for this setting: estimated IC-50, HEK cells expressing hSCN9A, class symbols or bounds.
Setting [3] is: estimated IC-50, HEK cells expressing hSCN3A, class symbols or bounds.

T1 sequence (Q15858 whole entry): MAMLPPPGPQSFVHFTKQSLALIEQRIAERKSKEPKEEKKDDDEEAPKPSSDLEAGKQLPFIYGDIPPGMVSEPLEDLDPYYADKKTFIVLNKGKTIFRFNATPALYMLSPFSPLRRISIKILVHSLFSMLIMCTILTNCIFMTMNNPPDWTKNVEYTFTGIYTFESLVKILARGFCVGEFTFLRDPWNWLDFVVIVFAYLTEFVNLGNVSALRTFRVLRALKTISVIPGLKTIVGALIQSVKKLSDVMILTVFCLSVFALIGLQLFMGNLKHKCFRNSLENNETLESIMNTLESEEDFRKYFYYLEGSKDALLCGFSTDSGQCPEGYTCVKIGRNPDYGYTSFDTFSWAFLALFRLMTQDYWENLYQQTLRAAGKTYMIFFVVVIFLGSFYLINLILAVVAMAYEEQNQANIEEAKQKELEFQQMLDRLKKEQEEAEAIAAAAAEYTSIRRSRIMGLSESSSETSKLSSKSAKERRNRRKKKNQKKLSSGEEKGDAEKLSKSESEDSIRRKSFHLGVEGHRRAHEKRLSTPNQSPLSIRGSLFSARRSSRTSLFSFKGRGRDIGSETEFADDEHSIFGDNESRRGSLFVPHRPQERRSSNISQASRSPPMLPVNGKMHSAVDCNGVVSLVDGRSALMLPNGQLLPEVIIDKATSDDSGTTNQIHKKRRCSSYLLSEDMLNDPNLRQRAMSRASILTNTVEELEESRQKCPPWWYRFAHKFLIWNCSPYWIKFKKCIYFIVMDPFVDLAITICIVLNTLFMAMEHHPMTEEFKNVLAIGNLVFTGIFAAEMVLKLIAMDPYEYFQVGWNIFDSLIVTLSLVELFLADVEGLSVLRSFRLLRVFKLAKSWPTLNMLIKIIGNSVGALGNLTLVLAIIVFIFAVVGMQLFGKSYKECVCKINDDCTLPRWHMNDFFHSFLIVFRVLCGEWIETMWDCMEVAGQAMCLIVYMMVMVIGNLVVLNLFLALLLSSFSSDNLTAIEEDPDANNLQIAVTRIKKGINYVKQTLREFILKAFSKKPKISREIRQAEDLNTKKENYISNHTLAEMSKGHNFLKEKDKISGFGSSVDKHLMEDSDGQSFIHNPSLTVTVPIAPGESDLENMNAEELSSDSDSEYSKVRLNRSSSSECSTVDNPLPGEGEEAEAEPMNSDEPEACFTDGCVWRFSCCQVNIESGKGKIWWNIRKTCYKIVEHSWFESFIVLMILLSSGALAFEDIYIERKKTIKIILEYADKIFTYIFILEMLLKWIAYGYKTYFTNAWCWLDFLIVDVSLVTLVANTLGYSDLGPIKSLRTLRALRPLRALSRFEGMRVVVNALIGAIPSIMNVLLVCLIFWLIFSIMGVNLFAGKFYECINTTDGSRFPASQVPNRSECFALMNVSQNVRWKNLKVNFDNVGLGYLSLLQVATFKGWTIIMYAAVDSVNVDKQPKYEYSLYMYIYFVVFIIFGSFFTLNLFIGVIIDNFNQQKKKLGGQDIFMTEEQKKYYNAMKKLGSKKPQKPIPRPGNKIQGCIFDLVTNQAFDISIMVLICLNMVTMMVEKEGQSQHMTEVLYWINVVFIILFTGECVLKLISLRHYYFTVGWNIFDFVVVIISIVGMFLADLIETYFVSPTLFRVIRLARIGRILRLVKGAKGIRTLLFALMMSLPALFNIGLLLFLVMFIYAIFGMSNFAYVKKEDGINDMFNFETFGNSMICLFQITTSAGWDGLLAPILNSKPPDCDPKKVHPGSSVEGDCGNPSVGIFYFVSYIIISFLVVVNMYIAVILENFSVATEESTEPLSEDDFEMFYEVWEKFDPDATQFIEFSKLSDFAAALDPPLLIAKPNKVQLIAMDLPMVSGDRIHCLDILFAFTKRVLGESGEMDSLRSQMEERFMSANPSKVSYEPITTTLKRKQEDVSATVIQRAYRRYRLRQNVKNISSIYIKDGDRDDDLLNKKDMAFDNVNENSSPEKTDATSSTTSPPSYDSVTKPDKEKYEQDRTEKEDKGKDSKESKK
T2 sequence (Q9NY46 whole entry): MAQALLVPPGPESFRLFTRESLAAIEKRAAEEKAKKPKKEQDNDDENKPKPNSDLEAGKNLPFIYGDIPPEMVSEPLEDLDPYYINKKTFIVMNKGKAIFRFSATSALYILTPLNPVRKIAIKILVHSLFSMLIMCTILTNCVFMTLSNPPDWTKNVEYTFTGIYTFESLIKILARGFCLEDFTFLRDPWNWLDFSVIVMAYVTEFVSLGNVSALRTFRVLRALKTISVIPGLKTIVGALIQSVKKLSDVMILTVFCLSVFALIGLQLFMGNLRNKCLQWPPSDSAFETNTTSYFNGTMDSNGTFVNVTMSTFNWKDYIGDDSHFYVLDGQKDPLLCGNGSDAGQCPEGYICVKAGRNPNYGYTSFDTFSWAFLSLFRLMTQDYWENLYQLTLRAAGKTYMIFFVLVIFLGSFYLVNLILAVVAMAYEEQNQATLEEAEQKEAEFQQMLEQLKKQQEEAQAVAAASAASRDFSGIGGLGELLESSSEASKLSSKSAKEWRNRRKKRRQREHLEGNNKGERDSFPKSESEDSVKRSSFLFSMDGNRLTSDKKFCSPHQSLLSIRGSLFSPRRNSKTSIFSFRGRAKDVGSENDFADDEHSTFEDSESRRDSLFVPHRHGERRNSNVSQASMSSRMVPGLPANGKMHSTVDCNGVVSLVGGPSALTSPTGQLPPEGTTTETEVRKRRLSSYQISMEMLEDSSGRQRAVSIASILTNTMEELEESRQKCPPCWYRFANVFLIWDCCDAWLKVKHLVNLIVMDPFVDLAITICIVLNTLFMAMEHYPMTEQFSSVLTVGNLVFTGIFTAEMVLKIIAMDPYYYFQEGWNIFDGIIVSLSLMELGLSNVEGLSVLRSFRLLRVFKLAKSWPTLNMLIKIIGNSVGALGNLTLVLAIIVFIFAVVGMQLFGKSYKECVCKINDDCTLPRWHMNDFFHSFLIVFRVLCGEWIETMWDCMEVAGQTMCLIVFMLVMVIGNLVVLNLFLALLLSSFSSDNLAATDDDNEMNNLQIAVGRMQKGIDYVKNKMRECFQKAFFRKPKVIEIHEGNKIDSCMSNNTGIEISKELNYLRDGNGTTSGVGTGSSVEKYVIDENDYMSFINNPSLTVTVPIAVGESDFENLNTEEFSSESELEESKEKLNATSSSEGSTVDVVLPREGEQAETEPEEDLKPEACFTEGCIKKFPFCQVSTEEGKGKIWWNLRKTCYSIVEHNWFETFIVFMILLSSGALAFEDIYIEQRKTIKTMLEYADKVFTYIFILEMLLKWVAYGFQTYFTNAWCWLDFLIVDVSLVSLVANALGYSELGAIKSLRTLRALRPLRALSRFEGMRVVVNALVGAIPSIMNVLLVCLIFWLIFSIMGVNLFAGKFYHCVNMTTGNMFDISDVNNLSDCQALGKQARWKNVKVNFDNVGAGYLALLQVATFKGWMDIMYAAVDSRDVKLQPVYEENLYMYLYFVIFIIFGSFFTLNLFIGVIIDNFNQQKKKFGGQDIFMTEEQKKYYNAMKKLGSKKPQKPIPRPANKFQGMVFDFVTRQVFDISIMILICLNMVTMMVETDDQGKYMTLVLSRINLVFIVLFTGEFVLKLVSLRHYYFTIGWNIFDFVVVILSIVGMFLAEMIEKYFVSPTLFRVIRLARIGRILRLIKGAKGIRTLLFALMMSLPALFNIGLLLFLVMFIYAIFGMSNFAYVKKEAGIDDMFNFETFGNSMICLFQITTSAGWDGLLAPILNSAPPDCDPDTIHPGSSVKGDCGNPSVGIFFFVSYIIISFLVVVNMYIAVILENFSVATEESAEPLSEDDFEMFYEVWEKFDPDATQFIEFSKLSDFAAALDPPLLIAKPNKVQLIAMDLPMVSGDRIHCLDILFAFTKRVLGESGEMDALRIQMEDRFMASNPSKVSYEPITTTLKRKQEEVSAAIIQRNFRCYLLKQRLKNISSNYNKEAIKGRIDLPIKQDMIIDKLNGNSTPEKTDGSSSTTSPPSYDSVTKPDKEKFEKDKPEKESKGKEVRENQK

On to `CCOC(=O)C1(C)C=C(Nc2ccc(S(=O)(=O)Nc3nccs3)cc2)C(=O)N1c1ccccc1` (stereo not shown) [Compound 38, ethyl 2-methyl-5-oxo-1-phenyl-4-(4-(N-thiazol-2-ylsulfamoyl)phenylamino)-2,5-dihydro-1H-pyrrole-2-carboxylate, reference compound], for which the IC50 on hSCN9A (setting [1]) is > 3000 nM; on hSCN3A (setting [1]), > 1000 nM.

`Cc1nnc(Nc2ccc(S(=O)(=O)Nc3nccs3)cc2)c2ccccc12` [Compound 39, 4-(4-methylphthalazin-1-ylamino)-N-(thiazol-2-yl)benzenesulfonamide, reference compound]: the IC50 was > 3000 nM on hSCN9A (setting [1]) and > 1000 nM at hSCN3A (setting [1]).

In the case of `O=S(=O)(Nc1nccs1)c1ccc(Nc2nnc(-c3ccc(Cl)cc3)c3ccccc23)cc1` [Compound 40, 4-(4-(4-chlorophenyl)phthalazin-1-ylamino)-N-(thiazol-2-yl)benzenesulfonamide, reference compound], the IC50 at hSCN9A (setting [1]) is 3490 nM; on hSCN3A (setting [1]), 1320 nM.

For the molecule `Cc1ccc(-c2nnc(Nc3ccc(S(=O)(=O)Nc4nccs4)cc3)c3ccccc23)cc1` [Compound 41, N-(thiazol-2-yl)-4-(4-p-tolylphthalazin-1-ylamino)benzenesulfonamide, reference compound], the results for the IC50 on hSCN9A (setting [1]) and on hSCN3A (setting [1]) were > 3000 nM and 1610 nM, respectively.

For the molecule `O=S(=O)(Nc1nccs1)c1ccc(Nc2nnc(-c3ccccc3)c3ccccc23)cc1` [Compound 42, 4-(4-phenylphthalazin-1-ylamino)-N-(thiazol-2-yl)benzenesulfonamide, reference compound], the IC50 at hSCN9A (setting [1]) was > 3000 nM; at hSCN3A (setting [1]) it was 2030 nM.

On to `O=S(=O)(Nc1nccs1)c1ccc(Nc2nc(-c3ccccc3)cs2)cc1` [Compound 43, 4-(4-phenylthiazol-2-ylamino)-N-(thiazol-2-yl)benzenesulfonamide], for which the results for the IC50 at hSCN9A (setting [2]) and at hSCN3A (setting [3]) were 2000 to 10000 nM and > 1000 nM, respectively.

`O=S(=O)(Nc1nccs1)c1ccc(Nc2ncccn2)cc1` [Compound 44, 4-(pyrimidin-2-ylamino)-N-(thiazol-2-yl)benzenesulfonamide]: the results for the IC50 at hSCN9A (setting [2]) and on hSCN3A (setting [3]) were > 3000 nM and > 1000 nM, respectively.

In the case of `O=S(=O)(Nc1nccs1)c1ccc(Nc2nccc(OCc3ccccc3)n2)cc1` [Compound 45, 4-(4-(benzyloxy)pyrimidin-2-ylamino)-N-(thiazol-2-yl)benzenesulfonamide], the IC50 on hSCN9A (setting [2]) is > 10000 nM; at hSCN3A (setting [3]) it was < 2000 nM.

As to `O=S(=O)(Nc1nccs1)c1ccc(Nc2nccc(OCC(c3ccccc3)c3ccccc3)n2)cc1` [Compound 46, 4-(4-(2,2-diphenylethoxy)pyrimidin-2-ylamino)-N-(thiazol-2-yl)benzenesulfonamide], the figures for the IC50 on hSCN9A (setting [2]) and at hSCN3A (setting [3]) were > 10000 nM and < 2000 nM, respectively.

Take `O=S(=O)(Nc1nccs1)c1ccc(Nc2nc(-c3ccccc3)c(-c3ccccc3)s2)cc1` [Compound 47, 4-(4,5-diphenylthiazol-2-ylamino)-N-(thiazol-2-yl)benzenesulfonamide]: the IC50 is > 3000 nM on hSCN9A (setting [2]) and < 2000 nM on hSCN3A (setting [3]).

For the molecule `O=S(=O)(Nc1nccs1)c1ccc(Nc2nc(COc3ccccc3)cs2)cc1` [Compound 48, 4-(4-(phenoxymethyl)thiazol-2-ylamino)-N-(thiazol-2-yl)benzenesulfonamide], the IC50 at hSCN9A (setting [2]) is > 1000 nM; at hSCN3A (setting [3]), < 2000 nM.

Consider `O=S(=O)(Nc1nccs1)c1ccc(Nc2nc(CC(c3ccccc3)c3ccccc3)cs2)cc1` [Compound 49, 4-(4-(2,2-diphenylethyl)thiazol-2-ylamino)-N-(thiazol-2-yl)benzenesulfonamide], for which the IC50 at hSCN9A (setting [2]) and at hSCN3A (setting [3]) was < 2000 nM in each case.

As for `O=S(=O)(Nc1nccs1)c1ccc(Nc2nc(CCCOc3ccccc3)cs2)cc1` [Compound 50, 4-(4-(3-phenoxypropyl)thiazol-2-ylamino)-N-(thiazol-2-yl)benzenesulfonamide], the figures for the IC50 on hSCN9A (setting [2]) and at hSCN3A (setting [3]) were 2000 to 10000 nM and < 2000 nM, respectively.

Consider `O=S(=O)(Nc1nccs1)c1ccc(Nc2nc(CCC3CCCC3)cs2)cc1` [Compound 51, 4-(4-(2-cyclopentylethyl)thiazol-2-ylamino)-N-(thiazol-2-yl)benzenesulfonamide], for which the IC50 at hSCN9A (setting [2]) was 2000 to 10000 nM; at hSCN3A (setting [3]), < 2000 nM.

As for `O=S(=O)(Nc1nccs1)c1ccc(Nc2nc(COc3ccc(Cl)cc3)cs2)cc1` [Compound 52, 4-(4-((4-chlorophenoxy)methyl)thiazol-2-ylamino)-N-(thiazol-2-yl)benzenesulfonamide], the IC50 at hSCN9A (setting [2]) and on hSCN3A (setting [3]) was < 2000 nM each time.

For `O=S(=O)(Nc1nccs1)c1ccc(Nc2nc(C3CC3c3ccccc3)cs2)cc1` (stereo not shown) [Compound 53, 4-(4-(2-phenylcyclopropyl)thiazol-2-ylamino)-N-(thiazol-2-yl)benzenesulfonamide], the IC50 on hSCN9A (setting [2]) is > 1000 nM; on hSCN3A (setting [3]), < 2000 nM.

With `O=S(=O)(Nc1nccs1)c1ccc(Nc2nccc(OCc3ccccc3F)n2)cc1` [Compound 54, 4-(4-(2-fluorobenzyloxy)pyrimidin-2-ylamino)-N-(thiazol-2-yl)benzenesulfonamide], the IC50 is > 1000 nM on hSCN9A (setting [2]) and 2000 to 10000 nM on hSCN3A (setting [3]).

`O=S(=O)(Nc1nccs1)c1ccc(Nc2nccc(OCc3ccc(C(F)(F)F)cc3)n2)cc1` [Compound 55, N-(thiazol-2-yl)-4-(4-(4-(trifluoromethyl)benzyloxy)pyrimidin-2-ylamino)benzenesulfonamide]: the IC50 at hSCN9A (setting [2]) was > 1000 nM; at hSCN3A (setting [3]), < 2000 nM.

For `O=S(=O)(Nc1nccs1)c1ccc(Nc2nc(CNCC(c3ccccc3)c3ccccc3)cs2)cc1` [Compound 56, 4-(4-((2,2-diphenylethylamino)methyl)thiazol-2-ylamino)-N-(thiazol-2-yl)benzenesulfonamide], the IC50 on hSCN9A (setting [2]) and on hSCN3A (setting [3]) was < 2000 nM each time.

On to `O=S(=O)(Nc1nccs1)c1ccc(Nc2nc(CNCCOc3ccccc3)cs2)cc1` [Compound 57, 4-(4-((2-phenoxyethylamino)methyl)thiazol-2-ylamino)-N-(thiazol-2-yl)benzenesulfonamide], for which the IC50 at hSCN9A (setting [2]) is > 1000 nM; at hSCN3A (setting [3]), 2000 to 10000 nM.

With `O=S(=O)(Nc1nccs1)c1ccc(Nc2nc(CN3CCC[C@H]3CN3CCCC3)cs2)cc1` [Compound 58, (S)-4-(4-((2-(pyrrolidin-1-ylmethyl)pyrrolidin-1-yl)methyl)thiazol-2-ylamino)-N-(thiazol-2-yl)benzenesulfonamide], the IC50 on hSCN9A (setting [2]) was 2000 to 10000 nM; at hSCN3A (setting [3]) it was > 1000 nM.

`O=S(=O)(Nc1nccs1)c1ccc(Nc2nc(CNC(c3ccccc3)c3ccccc3)cs2)cc1` [Compound 60, 4-(4-((benzhydrylamino)methyl)thiazol-2-ylamino)-N-(thiazol-2-yl)benzenesulfonamide]: the values for the IC50 on hSCN9A (setting [2]) and on hSCN3A (setting [3]) were 2000 to 10000 nM and < 2000 nM, respectively.

`O=S(=O)(Nc1nccs1)c1ccc(Nc2nc(CNCCC(c3ccccc3)c3ccccc3)cs2)cc1` [Compound 61, 4-(4-((3,3-diphenylpropylamino)methyl)thiazol-2-ylamino)-N-(thiazol-2-yl)benzenesulfonamide]: the IC50 on hSCN9A (setting [2]) and at hSCN3A (setting [3]) was < 2000 nM in each case.
